Data from US8148097B2, “Screening method for identification of compounds with calcium-independent phospholipase A2β (iPLA2β) modulating activity” (Washington University, priority 2005, dated 2012).

Assays:
iPLA2β [1] = biological target: T1, iPLA2β (Cricetulus griseus, UniProt A0A3L7I2I8); assay: Covalent acylation (autoacylation) of iPLA2β with [14C]-long chain acyl-CoAs; format: biochemical; conditions: for effect of pretreatment on radiolabeling of iPLA2β with [1-14C]-oleoyl-CoA: 5 mM, 5 min at 30° C. pretreatment, FIG. 7
T1 construct: (His)6; made in house; host or cells: Sf9 insect cells (baculovirus)
T1 sequence (A0A3L7I2I8 1-752 isoform A0A3L7I2I8-2): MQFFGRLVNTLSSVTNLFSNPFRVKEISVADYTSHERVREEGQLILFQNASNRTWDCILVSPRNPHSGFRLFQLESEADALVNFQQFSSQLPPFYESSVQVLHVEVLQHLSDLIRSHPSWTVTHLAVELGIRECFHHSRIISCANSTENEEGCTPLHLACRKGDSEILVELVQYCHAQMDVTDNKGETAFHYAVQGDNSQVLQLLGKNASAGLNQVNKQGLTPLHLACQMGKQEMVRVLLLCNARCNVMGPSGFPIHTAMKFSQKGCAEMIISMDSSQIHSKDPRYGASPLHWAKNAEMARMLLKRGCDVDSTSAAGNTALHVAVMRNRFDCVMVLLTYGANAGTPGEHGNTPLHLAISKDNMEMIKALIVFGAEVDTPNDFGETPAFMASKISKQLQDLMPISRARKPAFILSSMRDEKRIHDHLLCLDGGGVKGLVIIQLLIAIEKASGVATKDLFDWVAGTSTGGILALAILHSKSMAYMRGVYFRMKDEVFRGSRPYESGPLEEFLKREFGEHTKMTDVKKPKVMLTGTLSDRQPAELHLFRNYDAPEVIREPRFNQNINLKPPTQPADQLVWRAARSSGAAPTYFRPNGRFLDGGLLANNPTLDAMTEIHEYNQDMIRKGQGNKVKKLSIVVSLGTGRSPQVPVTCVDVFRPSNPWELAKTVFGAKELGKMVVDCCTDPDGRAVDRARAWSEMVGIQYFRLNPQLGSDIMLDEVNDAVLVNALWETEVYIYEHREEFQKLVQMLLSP
Protocol: FIG. 5—Equivalent amounts of the indicated [1-^14C]-acyl-CoA guests (5 mol %) were incorporated into host POPC (100 μM) vesicles and incubated for 1 hr at 37° C. with equal amounts of either wild-type (WT) iPLA2β(His)6 (peptide disclosed as SEQ ID NO: 4), S465A iPLA2β(His)6 (peptide disclosed as SEQ ID NO: 4), or BEL-pretreated WT iPLA2β(His)6 (peptide disclosed as SEQ ID NO: 4) enzyme as described in Experimental Procedures. Samples were resolved by SDS-PAGE (10% gel), fixed, and dried before visualization by autoradiography.
FIG. 6—Purified iPLA2β(His)6 (peptide disclosed as SEQ ID NO: 4) (2 μM) was incubated with the indicated concentrations of [1-^14C]-oleoyl-CoA present as guest in host POPC (100 μM) vesicles for 1 hr at 37° C. Samples were electrophoresed in parallel with standard amounts (0.5-10 nCi) of [^14C]-BSA of known activity (not shown). The fixed and dried gel was exposed to film and the resultant signals from the [^14C]-BSA were utilized to generate a standard curve utilizing ID software from a Kodak Imagestation to determine the incorporation of [1-^14C]-oleate into iPLA2β.
FIG. 7—Purified iPLA2β(His)6 (peptide disclosed as SEQ ID NO: 4) was incubated with [1-^14C]-oleoyl CoA (10 mol %) incorporated as guest in host POPC vesicles. N-ethylmaleimide and iodoacetamide samples were pretreated with 5 mM of either reagent for 5 min at 30° C. before addition of [1-^14C]-oleoyl-CoA. Samples were incubated with 1 N HCl, 1 N NaOH, or 2 N neutral hydroxylamine for 1 hr at 30° C. as indicated. All samples, except lane 1, were precipitated with CHCl3/MeOH and washed with 70% acetone before SDS-PAGE and autoradiography as described in Experimental Procedures.
FIG. 10—Purified iPLA2β(His)6 (peptide disclosed as SEQ ID NO: 4) was incubated with [1-^14C]-oleoyl CoA (10 mol %) incorporated as guest in host POPC vesicles in the presence of EGTA (5 mM), Ca^2+ (1 mM), CaM (3 μg), or Ca^2+-CaM for 1 h at 37° C. Samples were resolved by SDS-PAGE and the gel was soaked in Amplify fluorographic reagent, dried, and exposed to film as described in Experimental Procedures.
Covalent Modification of […] with [^14C]-long chain Acyl CoAs—Purified recombinant iPLA2β(His)6 (peptide disclosed as SEQ ID NO: 4) was incubated with POPC vesicles containing 10 mol % [1-^14C]-acyl-CoA for 1 h at 37° C. […] Chloroform/methanol precipitation of some samples was performed as described (66) utilizing 15 μg of bovine serum albumin as carrier. In tests to examine the nature of the covalent linkage between oleic acid and iPLA2β, acid (HCl), base (NaOH), and hydroxylamine were added to the indicated concentrations and the samples were incubated at 30° C. for 1 h. Bovine serum albumin (15 μg) and SDS-PAGE loading buffer were then added to each sample prior to dialysis against 50 mM Tris-HCl, pH 6.8 containing 10% glycerol and 1% SDS for 4 h. Samples were electrophoresed by SDS-PAGE, fixed (40% methanol containing 10% acetic acid), stained with Coomassie Blue R-250, incubated in Amplify fluorographic reagent, dried, and exposed to Kodak Biomax MR film for 2-5 days at −80° C.

iPLA2γ [2] = biological target: T2, iPLA2γ (Homo sapiens, UniProt Q9NP80); assay: Cardiolipin and phospholipid hydrolysis catalyzed by iPLA2γ and inhibition by BEL; format: biochemical; conditions: iPLA2g + BEL 10 μM, 20 min 37° C.
T2 sequence (Q9NP80 1-782): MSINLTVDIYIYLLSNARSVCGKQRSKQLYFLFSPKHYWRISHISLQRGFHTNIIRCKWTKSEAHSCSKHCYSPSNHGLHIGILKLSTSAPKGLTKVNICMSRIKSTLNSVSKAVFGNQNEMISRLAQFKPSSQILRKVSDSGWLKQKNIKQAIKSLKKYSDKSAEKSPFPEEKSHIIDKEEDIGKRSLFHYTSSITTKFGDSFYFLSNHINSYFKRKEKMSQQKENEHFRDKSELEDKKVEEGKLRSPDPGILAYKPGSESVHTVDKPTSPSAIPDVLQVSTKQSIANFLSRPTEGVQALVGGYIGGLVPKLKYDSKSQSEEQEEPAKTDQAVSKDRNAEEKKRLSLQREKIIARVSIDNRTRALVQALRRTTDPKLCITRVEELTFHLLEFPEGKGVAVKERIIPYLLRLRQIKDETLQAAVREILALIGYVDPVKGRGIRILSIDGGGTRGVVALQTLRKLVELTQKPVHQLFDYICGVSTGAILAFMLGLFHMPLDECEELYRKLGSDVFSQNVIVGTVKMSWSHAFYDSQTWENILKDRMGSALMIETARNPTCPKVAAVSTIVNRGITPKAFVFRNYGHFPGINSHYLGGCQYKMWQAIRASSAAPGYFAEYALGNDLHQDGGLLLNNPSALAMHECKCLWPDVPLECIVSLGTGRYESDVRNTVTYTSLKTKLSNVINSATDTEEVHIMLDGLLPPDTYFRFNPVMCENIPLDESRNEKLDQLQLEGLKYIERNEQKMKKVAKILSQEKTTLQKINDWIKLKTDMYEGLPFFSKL
Protocol: (§1) Purified calcium-independent phospholipase A2 (iPLA2β) and calcium-independent phospholipase A2γ were incubated with vesicles containing 10% cardiolipin (tetra 18:1) for 20 min at 37° C.

iPLA2γ [3] = biological target: T2, iPLA2γ; conditions: racemic BEL, previous work; read-out: IC50, iPLA2γ phospholipase A2 activity; cited from earlier work
iPLA2β [4] = biological target: T1, iPLA2β; assay: Cardiolipin and phospholipid hydrolysis catalyzed by iPLA2β and inhibition by BEL; format: biochemical; conditions: iPLA2b + BEL 10 μM, 20 min 37° C.
Protocol: as §1

iPLA2β [5] = biological target: T1, iPLA2β; assay: iPLA2β palmitoyl-CoA thioesterase (hydrolase) activity, palmitoyl-CoA guest in host vesicles; format: biochemical; conditions: pre-incubated with purified iPLA2β(His)6; palmitoyl-CoA guest in POPC/DOPS host bilayers; read-out: IC50, iPLA2β palm-CoA hydrolase activity
Protocol: The enzyme was then added to 100 mM Tris-HCl, pH 7.2 containing 1 mM EGTA and [1-^14C]-palmitoyl-CoA guest (5 mol %) in POPC (100 μM) host vesicles for 2 min at 37° C. Following extraction into butanol, liberated [1-^14C]-palmitic acid was separated from [1-^14C]-palmitoyl-CoA by TLC and quantified by liquid scintillation spectrometry as described in Experimental Procedures.
FIG. 9—Calcium-independent iPLA2β was pre-incubated in the presence of Ca^2+ (1 mM) or Ca^2+-CaM (3 μg) on ice before addition to 95 μM POPC containing either 5 mol % [1-^14C]-POPC or [1-^14C]-palmitoyl-CoA in 100 mM Tris-HCl, pH 7.2. After incubation at 37° C. for 3 min, reactions were terminated by vortexing in the presence of butanol and released radiolabeled fatty acids were resolved by TLC and quantitated by liquid scintillation spectrometry as described in Experimental Procedures.
Phospholipase A2 and Acyl-CoA Hydrolase Enzymatic Assays—Purified recombinant iPLA2β(His)6 (peptide disclosed as SEQ ID NO: 4) (0.1-1 μg) was incubated with radiolabeled phospholipid or acyl-CoA in 25 mM Tris-HCl, pH 7.2 containing 1 mM EGTA (200 μl final volume) for 1-2 mm at 37° C. […] Incorporation of acyl-CoA into the POPC/DOPS vesicles employed was determined as described previously (64). […]

iPLA2β [6] = biological target: T1, iPLA2β; assay: iPLA2β-catalyzed acyl-CoA hydrolysis (substrate rate and selectivity); format: biochemical
Protocol: Reactions were terminated by vortexing with butanol and [1-^14C]-palmitic acid extracted into the butanol layer was resolved by TLC and quantified by liquid scintillation spectrometry as described in Experimental Procedures. B, iPLA2β catalyzed hydrolysis of palmitoyl-CoA guest in host POPC/DOPS vesicles. The indicated mol % of [^14C]-palmitoyl-CoA were incorporated into POPC/DOPS (90:10) vesicles (100 μM final vesicle lipid concentration). Each data point represents the average±S.E. for at least 4 separate determinations.
Released [1-^14C]-fatty acid was extracted into butanol by vortexing, resolved by TLC, and quantified by liquid scintillation spectrometry as described in Experimental Procedures. Each data point represents the average ±SE. from 8 separate determinations.
In tests using acyl-CoAs as guests in host phospholipid bilayers, radiolabeled acyl-CoAs were incorporated into POPC/DOPS (90:10 mol %) vesicles before addition to the reaction mix. […] Incorporation of acyl-CoA into the POPC/DOPS vesicles employed was determined as described previously (64). Reactions were terminated by extraction of the released radiolabeled fatty acids into 100 μl butanol, separation of fatty acids from unreacted substrate by thin layer chromatography, and quantitation by scintillation spectroscopy as previous described (65). […]

[7] = PAPC vesicles with 10 mol % tetra-18:1 CL

Question: With `O=C1O/C(=C/Br)CCC1c1cccc2ccccc12` (racemic) [BEL, (E)-6-(bromomethylene)-3-(1-naphthalenyl)-2H-tetrahydropyran-2-one] as the compound, how does the “effect of BEL pretreatment on iPLA2β acylation with palmitoyl-CoA and stearoyl-CoA” value (iPLA2β [1]; BEL-pretreated iPLA2β, FIG. 5) read?
Answer: The value was “marked increases in acylation”.

Question: And the “16:0 FA” value (iPLA2γ [2])?
Answer: Its value is 3.07 nmol/reaction.

Question: What about the “18:1 FA” value (iPLA2γ [2]) of the same compound?
Answer: The value was 0.54 nmol/reaction.

Question: What about the “20:4 FA” value (iPLA2γ [2]) of the same compound?
Answer: Its value is 0.54 nmol/reaction.

Question: What about the “Di-18:1 LysoCL” value (iPLA2γ [2]) of the same compound?
Answer: The value was 0.12 nmol/reaction.

Question: And the “Tri-18:1 LysoCL” value (iPLA2γ [2])?
Answer: Its value is 0.14 nmol/reaction.

Question: What about the “Tetra-18:1 CL” value (iPLA2γ [2]; [7]) of the same compound?
Answer: The value was 2.18 nmol/reaction.

Question: And the IC50 (iPLA2γ [3])?
Answer: The IC50 was roughly 3000 nM.

Question: What about the “16:0 FA” value (iPLA2β [4]) of the same compound?
Answer: The value was 0.96 nmol/reaction.

Question: And the “18:1 FA” value (iPLA2β [4])?
Answer: The value was 0.61 nmol/reaction.

Question: And the “20:4 FA” value (iPLA2β [4])?
Answer: The value was 0.50 nmol/reaction.

Question: What about the “Di-18:1 LysoCL” value (iPLA2β [4]) of the same compound?
Answer: The value was 0.15 nmol/reaction.

Question: And the “Tri-18:1 LysoCL” value (iPLA2β [4])?
Answer: Its value is 0.10 nmol/reaction.

Question: What about the “Tetra-18:1 CL” value (iPLA2β [4]; [7]) of the same compound?
Answer: The value was 1.95 nmol/reaction.

Question: With `O=C1O/C(=C/Br)CC[C@@H]1c1cccc2ccccc12` [(R)-BEL] as the compound, how does the IC50 (iPLA2β [5]) read?
Answer: The IC50 was 800 nM.

Question: Which IC50 (iPLA2β [5]) does the source give for `O=C1O/C(=C/Br)CC[C@H]1c1cccc2ccccc12` [(S)-BEL] here?
Answer: The IC50 was roughly 100 nM.

Question: With `CC(C)(COP(=O)(O)OP(=O)(O)OC[C@H]1O[C@@H](n2cnc3c(N)ncnc32)[C@H](O)[C@@H]1OP(=O)(O)O)[C@@H](O)C(=O)NCCC(=O)NCCS` [CoASH] as the compound, how does the “inhibition of iPLA2β by high concentrations of CoASH” value (iPLA2β [6]) read?
Answer: The value was “not inhibited”.

Question: With `CCN1C(=O)C=CC1=O` [N-ethylmaleimide] as the compound, how does the “effect of pretreatment on radiolabeling of iPLA2β with [1-14C]-oleoyl-CoA” value (iPLA2β [1]) read?
Answer: The value was “decreased radiolabeling”.

Question: Which “signal intensity of iPLA2β acylation, fold less than with [1-14C]-oleoyl-CoA” value (iPLA2β [1]; wild-type iPLA2β, FIG. 5) does the source give for `CCCCC/C=C\C/C=C\C/C=C\C/C=C\CCC[14C](=O)SCCNC(=O)CCNC(=O)[C@H](O)C(C)(C)COP(=O)(O)OP(=O)(O)OC[C@H]1O[C@@H](n2cnc3c(N)ncnc32)[C@H](O)[C@@H]1OP(=O)(O)O` [[1-^14C]-arachidonoyl-CoA] here?
Answer: The value was “≈ 25 fold”.

Question: Which “effect of pretreatment on radiolabeling of iPLA2β with [1-14C]-oleoyl-CoA” value (iPLA2β [1]) does the source give for `NC(=O)CI` [iodoacetamide] here?
Answer: The value was “decreased radiolabeling”.

Question: For `CCCCCCCCCCCCCCCC(=O)SCCNC(=O)CCNC(=O)[C@H](O)C(C)(C)COP(=O)(O)OP(=O)(O)OC[C@H]1O[C@@H](n2cnc3c(N)ncnc32)[C@H](O)[C@@H]1OP(=O)(O)O` [palmitoyl-CoA], which “maximal rate of palmitoyl-CoA thioesterase activity catalyzed by iPLA2β” value (iPLA2β [6]; at 2.5 μM palmitoyl-CoA, FIG. 1A) is on record?
Answer: Its value is “≈ 250 nmol palmitic acid×min^−1×mg^−1 protein”.
